Patent US10294202B2, “Pyrrolidinones as herbicides” (FMC Corporation, priority 2013, dated 2019)

Tests used:
morningglory = experiment: Test C pre-/postemergence herbicide test; format: in vivo, Ipomoea coccinea
In short: (§1)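 Two application timings ran in parallel with identically formulated test chemicals (non-phytotoxic solvent, surfactant included): spray on seeded loam–sand soil, and spray on emerged plants 2 to 18 cm high. Evaluation at 13 to 15 days compared each species with controls, rated from 0 up to 100.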

pigweed = experiment: Test C pre-/postemergence herbicide test; format: in vivo, Amaranthus retroflexus
In short: as §1

ryegrass, Italian = experiment: Test C pre-/postemergence herbicide test; format: in vivo, Lolium multiflorum
In short: as §1

barnyardgrass [1] = experiment: Test C pre-/postemergence herbicide test; format: in vivo, Echinochloa crus-galli
In short: as §1

ragweed = experiment: Test C pre-/postemergence herbicide test; format: in vivo, Ambrosia elatior
In short: as §1

waterhemp = experiment: Test C pre-/postemergence herbicide test; format: in vivo, Amaranthus rudis
In short: as §1

soybean = experiment: Test C pre-/postemergence herbicide test; format: in vivo, Glycine max
In short: as §1

galium = experiment: Test C pre-/postemergence herbicide test; format: in vivo, Galium aparine; conditions: Preemergence
In short: as §1

oat, wild = experiment: Test C pre-/postemergence herbicide test; format: in vivo, Avena fatua; conditions: Postemergence
In short: as §1

corn = experiment: Test C pre-/postemergence herbicide test; format: in vivo, Zea mays
In short: as §1

sedge, umbrella = experiment: Test B flooded paddy test; format: in vivo, Cyperus difformis; conditions: 500 g ai/ha, Flood; scale of 0 to 100 where 0 is no effect and 100 is complete control
In short: (§2)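 Visual ratings from 0, meaning no effect, up to 100, meaning complete control, were made by comparison with untreated controls 13 to 15 days after treatment. Test compounds went straight into floodwater standing 3 cm over the soil of pots holding 2-leaf seedlings.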

wheat (winter wheat) = experiment: Test C pre-/postemergence herbicide test; format: in vivo, Triticum aestivum
In short: as §1

lambsquarters = experiment: Test C pre-/postemergence herbicide test; format: in vivo, Chenopodium album
In short: as §1

ducksalad = experiment: Test B flooded paddy test; format: in vivo, Heteranthera limosa; conditions: 500 g ai/ha, Flood; scale of 0 to 100 where 0 is no effect and 100 is complete control
In short: as §2

barnyardgrass [2] = experiment: Test B flooded paddy test; format: in vivo, Echinochloa crus-galli; conditions: 500 g ai/ha, Flood; scale of 0 to 100 where 0 is no effect and 100 is complete control
In short: as §2

[3] = Postemergence, 31 g ai/ha, scale 0 to 100 (0 no effect, 100 complete control)
[4] = Postemergence, 62 g ai/ha, scale 0 (no effect) to 100 (complete control)
[5] = Postemergence, 125 g ai/ha, scale 0 to 100 (0 no effect, 100 complete control)
[6] = Postemergence, 250 g ai/ha, scale 0 to 100 (0 no effect, 100 complete control)
[7] = Preemergence, 31 g ai/ha, scale 0 to 100, 0 is no effect and 100 is complete control
[8] = Preemergence, 62 g ai/ha, scale 0 to 100 (0 no effect, 100 complete control)
[9] = Preemergence, 125 g ai/ha, scale 0 to 100

O=C1NCC(c2cccc(OC(F)F)c2)C1C(=O)Nc1cccc(F)c1F (centres unmarked) [Compound 324]
Plant response rating, Morningglory (morningglory; [3]): 10 | Plant response rating, Morningglory (morningglory; [4]): 5 | Plant response rating, Morningglory (morningglory; [5]): 10 | Plant response rating, Morningglory (morningglory; [6]): 15 | Morningglory plant response rating (morningglory; [7]): 0 | Morningglory plant response rating (morningglory; [8]): 0 | Plant response rating, Morningglory (morningglory; [9]): 35 | Plant response rating (scale of 0 to 100), Morningglory (morningglory; Preemergence, 250 g ai/ha): 55 | Plant response rating, Pigweed (pigweed; [3]): 0 | Plant response rating, Pigweed (pigweed; [4]): 35 | Plant response rating, Pigweed (pigweed; [5]): 65 | Plant response rating, Pigweed (pigweed; [6]): 55 | Pigweed plant response rating (pigweed; [7]): 55 | Pigweed plant response rating (pigweed; [8]): 75 | Plant response rating, Pigweed (pigweed; [9]): 80 | Plant response rating, Ryegrass, Italian (ryegrass, Italian; [3]): 0 | Plant response rating, Ryegrass, Italian (ryegrass, Italian; [4]): 0 | Plant response rating, Ryegrass, Italian (ryegrass, Italian; [5]): 0 | Plant response rating, Ryegrass, Italian (ryegrass, Italian; [6]): 0 | Ryegrass, Italian plant response rating (ryegrass, Italian; [8]): 10 | Plant response rating, Ryegrass, Italian (ryegrass, Italian; [9]): 35 | Plant response rating, Barnyardgrass (barnyardgrass [1]; [3]): 0 | Plant response rating, Barnyardgrass (barnyardgrass [1]; [4]): 35 | Plant response rating, Barnyardgrass (barnyardgrass [1]; [5]): 55 | Plant response rating, Barnyardgrass (barnyardgrass [1]; [6]): 65 | Barnyardgrass plant response rating (barnyardgrass [1]; [7]): 90 | Barnyardgrass plant response rating (barnyardgrass [1]; [8]): 95 | Plant response rating, Barnyardgrass (barnyardgrass [1]; Preemergence, 125 g ai/ha, scale 0 to 100 (0 no effect, 100 complete control)): 95 | Plant response rating (scale of 0 to 100; 0 is no effect, 100 is complete control), Barnyardgrass (barnyardgrass [1]; Preemergence, 250 g ai/ha): 98 | Plant response rating, Ragweed (ragweed; [3]): 5 | Plant response rating, Ragweed (ragweed; [4]): 20 | Plant response rating, Ragweed (ragweed; [5]): 25 | Plant response rating, Ragweed (ragweed; [6]): 40 | Ragweed plant response rating (ragweed; [8]): 60 | Plant response rating, Ragweed (ragweed; [9]): 75 | Plant response rating, Waterhemp (waterhemp; [3]): 0 | Plant response rating, Waterhemp (waterhemp; [4]): 10 | Plant response rating, Waterhemp (waterhemp; [5]): 20 | Plant response rating, Waterhemp (waterhemp; [6]): 40 | Waterhemp plant response rating (waterhemp; [8]): 70 | Plant response rating, Waterhemp (waterhemp; [9]): 80 | Plant response rating, Soybean (soybean; [3]): 0 | Plant response rating, Soybean (soybean; [4]): 5 | Plant response rating, Soybean (soybean; [5]): 0 | Plant response rating, Soybean (soybean; [6]): 0 | Soybean plant response rating (soybean; [8]): 0 | Plant response rating, Soybean (soybean; [9]): 0 | Galium plant response rating (galium; 31 g ai/ha, scale 0 to 100, 0 is no effect and 100 is complete control): 0 | Galium plant response rating (galium; 62 g ai/ha, scale 0 to 100 (0 no effect, 100 complete control)): 60 | Plant response rating, Galium (galium; 125 g ai/ha, scale 0 to 100): 85 | Plant response rating (scale of 0 to 100), Galium (galium; 250 g ai/ha): 85 | Plant response rating, Oat, Wild (oat, wild; 31 g ai/ha, scale 0 to 100 (0 no effect, 100 complete control)): 0 | Plant response rating, Oat, Wild (oat, wild; 62 g ai/ha, scale 0 (no effect) to 100 (complete control)): 0 | Plant response rating, Oat, Wild (oat, wild; 125 g ai/ha, scale 0 to 100 (0 no effect, 100 complete control)): 0 | Plant response rating, Oat, Wild (oat, wild; 250 g ai/ha, scale 0 to 100 (0 no effect, 100 complete control)): 5 | Plant response rating, Corn (corn; [3]): 0 | Plant response rating, Corn (corn; [4]): 0 | Plant response rating, Corn (corn; [5]): 55 | Plant response rating, Corn (corn; [6]): 0 | Corn plant response rating (corn; [7]): 25 | Corn plant response rating (corn; [8]): 70 | Plant response rating, Corn (corn; [9]): 75 | Plant response rating (scale of 0 to 100), Corn (corn; Preemergence, 250 g ai/ha): 85 | Plant response rating, Sedge, Umbrella (sedge, umbrella): 0 | Plant response rating, Wheat (wheat (winter wheat); [3]): 0 | Plant response rating, Wheat (wheat (winter wheat); [4]): 0 | Plant response rating, Wheat (wheat (winter wheat); [5]): 0 | Plant response rating, Wheat (wheat (winter wheat); [6]): 0 | Wheat plant response rating (wheat (winter wheat); [8]): 25 | Plant response rating, Wheat (wheat (winter wheat); [9]): 65 | Plant response rating, Lambsquarters (lambsquarters; [3]): 0 | Plant response rating, Lambsquarters (lambsquarters; [4]): 55 | Plant response rating, Lambsquarters (lambsquarters; [5]): 70 | Plant response rating, Lambsquarters (lambsquarters; [6]): 65 | Lambsquarters plant response rating (lambsquarters; [7]): 50 | Lambsquarters plant response rating (lambsquarters; [8]): 70 | Plant response rating, Lambsquarters (lambsquarters; [9]): 80 | Plant response rating (scale of 0 to 100), Lambsquarters (lambsquarters; Preemergence, 250 g ai/ha): 85 | Plant response rating, Ducksalad (ducksalad): 100 | Plant response rating, Barnyardgrass (barnyardgrass [2]): 80
